Test results reported in PMC8713164, “Development of a 1,2,4-Triazole-Based Lead Tankyrase Inhibitor: Part II” (Journal of Medicinal Chemistry, 2021).
Where “and” joins values, the source holds several entries; their conditions need not be identical. Identical values can stand only once. Like-named read-outs stand apart in the source and are kept apart here.

Experiments:
TNKS2 = target: T1, TNKS2 (Homo sapiens, UniProt Q9H2K2); assay: TNKS2 biochemical assay (unreacted NAD+ fluorescence); details: TNKS2 5 nM, 500 nM NAD+, 20 h; quadruplicates; 95% confidence intervals in parentheses; 24: averages of multiple independent measurements; read-out: IC50 TNKS2
T1 construct: TNKS2 (residues 873–1162); made in house
T1 sequence (Q9H2K2 873-1162): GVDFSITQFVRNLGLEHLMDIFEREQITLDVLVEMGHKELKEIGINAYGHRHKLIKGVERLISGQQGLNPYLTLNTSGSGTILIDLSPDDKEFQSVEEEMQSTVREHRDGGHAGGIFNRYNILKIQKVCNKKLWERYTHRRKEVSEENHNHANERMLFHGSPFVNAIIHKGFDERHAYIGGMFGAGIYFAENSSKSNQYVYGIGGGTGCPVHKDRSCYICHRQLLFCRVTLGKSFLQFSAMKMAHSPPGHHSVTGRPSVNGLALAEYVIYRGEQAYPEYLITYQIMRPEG
Protocol: New compounds were prepared in half-log dilution series, and the reactions were carried out in quadruplicates with protein and compound controls to exclude the effect of compound autofluorescence. All reactions were performed at ambient temperature. TNKS1 (20 nM) or TNKS2 (5 nM) was incubated for 20 h in assay buffer (50 mM Bis-Tris propane (BTP), pH 7.0, 0.5 mM Tris(2-carboxyethyl)phosphine (TCEP), 0.01% Triton X-100) with compound and 10 μM or 500 nM NAD^+, respectively.

WNT/β-catenin signaling = assay: cellular (HEK293) WNT/β-catenin signaling luciferase reporter assay; assay type: cell-based, human
[1] = Homo sapiens, HEK293, read-out: IC50 HEK293, HEK293 WNT/β-catenin signaling reporter assay, triplicates, 24: averages of multiple independent measurements
[2] = read-out: IC50 HEK293, HEK293 WNT/β-catenin signaling reporter assay, triplicates, 24: averages of multiple independent measurements
[3] = Homo sapiens, HEK293, read-out: IC50 HEK293

`O=C(N[C@H]1C[C@H](c2nnc(-c3ccc(OC4CC4)cn3)n2-c2ccccc2F)C1)c1ccccn1` [Compound 7, N-(trans-3-(5-(5-Cyclopropoxypyridin-2-yl)-4-(2-fluorophenyl)-4H-1,2,4-triazol-3-yl)cyclobutyl)picolinamide] showed an IC50 (TNKS2) of 8.6 nM and an IC50 (WNT/β-catenin signaling; [1]) of 49 nM.
`CC(C)Oc1ccc(-c2nnc([C@H]3C[C@H](NC(=O)c4ccccn4)C3)n2-c2ccccc2F)nc1` [Compound 8, N-(trans-3-(4-(2-Fluorophenyl)-5-(5-isopropoxypyridin-2-yl)-4H-1,2,4-triazol-3-yl)cyclobutyl)picolinamide] showed an IC50 (TNKS2) of 12 nM and an IC50 (WNT/β-catenin signaling; [1]) of 110 nM.
For `O=C(N[C@H]1C[C@H](c2nnc(-c3ccccc3)n2-c2ccccc2F)C1)c1ccccn1` [Compound 9, N-(trans-3-(4-(2-Fluorophenyl)-5-phenyl-4H-1,2,4-triazol-3-yl)cyclobutyl)picolinamide], the IC50 (TNKS2) was 220 nM and 216 nM and the IC50 (WNT/β-catenin signaling; [1]) was 789 nM.
For `O=C(N[C@H]1C[C@H](c2nnc(-c3cnccn3)n2-c2ccccc2F)C1)c1ccccn1` [Compound 10, N-(trans-3-(4-(-2-Fluorophenyl)-5-(pyrazin-2-yl)-4H-1,2,4-triazol-3-yl)cyclobutyl)picolinamide], the IC50 (TNKS2) was 93 nM and the IC50 (WNT/β-catenin signaling; [1]) was 355 nM.
For `CCOc1ccc(-c2nnc([C@H]3C[C@H](NC(=O)c4ccccn4)C3)n2-c2ccccc2)nc1` [Compound 11, N-(trans-3-(5-(5-Ethoxypyridin-2-yl)-4-phenyl-4H-1,2,4-triazol-3-yl)cyclobutyl)picolinamide], the IC50 (TNKS2) was 5.2 nM and the IC50 (WNT/β-catenin signaling; [1]) was 65 nM.
In the case of `CCOc1ccc(-c2nnc([C@H]3C[C@H](NC(=O)c4ccccn4)C3)n2-c2cccc(Cl)c2)nc1` [Compound 12, N-(trans-3-(4-(3-Chlorophenyl)-5-(5-ethoxypyridin-2-yl)-4H-1,2,4-triazol-3-yl)cyclobutyl)picolinamide], the IC50 (TNKS2) is reported as 13 nM and the IC50 (WNT/β-catenin signaling; [1]) is reported as 83 nM.
`CCOc1ccc(-c2nnc([C@H]3C[C@H](NC(=O)c4ccccn4)C3)n2-c2ccc(C)s2)nc1` [Compound 13, N-(trans-3-(5-(5-Ethoxypyridin-2-yl)-4-(5-methylthiophen-2-yl)-4H-1,2,4-triazol-3-yl)cyclobutyl)picolinamide] gave an IC50 (TNKS2) of 4.6 nM and an IC50 (WNT/β-catenin signaling; [1]) of 37 nM.
With `CCOc1ccc(-c2nnc([C@H]3C[C@H](NC(=O)c4ccccn4)C3)n2-c2ccc(Cl)s2)nc1` [Compound 14, N-(trans-3-(4-(5-Chlorothiophen-2-yl)-5-(5-ethoxypyridin-2-yl)-4H-1,2,4-triazol-3-yl)cyclobutyl)picolinamide] the IC50 (TNKS2) was 12 nM and the IC50 (WNT/β-catenin signaling; [1]) was 27 nM.
With `CCOc1ccc(-c2nnc([C@H]3C[C@H](NC(=O)c4ccnc5cccnc45)C3)n2-c2ccccn2)nc1` [Compound 16a, N-(trans-3-(5-(5-Ethoxypyridin-2-yl)-4-(pyridin-2-yl)-4H-1,2,4-triazol-3-yl)cyclobutyl)-1,5-naphthyridine-4-carboxamide] the IC50 (TNKS2) was 5.8 nM and the IC50 (WNT/β-catenin signaling; [1]) was 36 nM.
With `CCOc1ccc(-c2nnc([C@H]3C[C@H](NC(=O)c4ccnc5cc(F)cnc45)C3)n2-c2ccccn2)nc1` [Compound 16b, N-(trans-3-(5-(5-Ethoxypyridin-2-yl)-4-(pyridin-2-yl)-4H-1,2,4-triazol-3-yl)cyclobutyl)-7-fluoro-1,5-naphthyridine-4-carboxamide] the IC50 (TNKS2) was 8.5 nM, the IC50 (WNT/β-catenin signaling; [1]) was 8.7 nM and the IC50 (WNT/β-catenin signaling; [2]) was 9 nM.
`CCOc1ccc(-c2nnc([C@H]3C[C@H](NC(=O)c4ccnc5cccnc45)C3)n2-c2cccnc2)nc1` [Compound 17a, N-(trans-3-(5-(5-Ethoxypyridin-2-yl)-4-(pyridin-3-yl)-4H-1,2,4-triazol-3-yl)cyclobutyl)-1,5-naphthyridine-4-carboxamide] gave an IC50 (TNKS2) of 4.5 nM and an IC50 (WNT/β-catenin signaling; [1]) of 16 nM.
`CCOc1ccc(-c2nnc([C@H]3C[C@H](NC(=O)c4ccnc5cc(F)cnc45)C3)n2-c2cccnc2)nc1` [Compound 17b, N-(trans-3-(5-(5-Ethoxypyridin-2-yl)-4-(pyridin-3-yl)-4H-1,2,4-triazol-3-yl)cyclobutyl)-7-fluoro-1,5-naphthyridine-4-carboxamide] showed an IC50 (TNKS2) of 5.8 nM, an IC50 (WNT/β-catenin signaling; [1]) of 9.1 nM and an IC50 (WNT/β-catenin signaling; [2]) of 9 nM.
For `CCOc1ccc(-c2nnc([C@H]3C[C@H](NC(=O)c4ccnc5cccnc45)C3)n2-c2ccncc2)nc1` [Compound 18a, N-(trans-3-(5-(5-Ethoxypyridin-2-yl)-4-(pyridin-4-yl)-4H-1,2,4-triazol-3-yl)cyclobutyl)-1,5-naphthyridine-4-carboxamide], the IC50 (TNKS2) was 5.4 nM and the IC50 (WNT/β-catenin signaling; [1]) was 13 nM.
Work on `CCOc1ccc(-c2nnc(C34CC(NC(=O)c5ccnc6cccnc56)(C3)C4)n2-c2ccccn2)nc1` [Compound 19, N-(3-(5-(5-Ethoxypyridin-2-yl)-4-(pyridin-2-yl)-4H-1,2,4-triazol-3-yl)bicyclo[1.1.1]pentan-1-yl)-1,5-naphthyridine-4-carboxamide] yielded an IC50 (TNKS2) of 13 nM and an IC50 (WNT/β-catenin signaling; [3]) of 20 nM.
Compound `CCOc1ccc(-c2nnc(C34CC(NC(=O)c5ccnc6cccnc56)(C3)C4)n2-c2cccnc2)nc1` [Compound 20, N-(3-(5-(5-Ethoxypyridin-2-yl)-4-(pyridin-3-yl)-4H-1,2,4-triazol-3-yl)bicyclo[1.1.1]pentan-1-yl)-1,5-naphthyridine-4-carboxamide] has an IC50 (TNKS2) of 9.6 nM and an IC50 (WNT/β-catenin signaling; [3]) of 30 nM.
Compound `CCOc1ccc(-c2nnc(C34CC(NC(=O)c5ccnc6cccnc56)(C3)C4)n2-c2ccncc2)nc1` [Compound 21, N-(3-(5-(5-Ethoxypyridin-2-yl)-4-(pyridin-4-yl)-4H-1,2,4-triazol-3-yl)bicyclo[1.1.1]pentan-1-yl)-1,5-naphthyridine-4-carboxamide] has an IC50 (TNKS2) of 9.4 nM and an IC50 (WNT/β-catenin signaling; [3]) of 43 nM.
`CCOc1ccc(-c2nnc([C@H]3C[C@H](NC(=O)c4ccnc5cc(F)cnc45)C3)n2-c2ccc(C)s2)nc1` [Compound 22b, N-(trans-3-(5-(5-Ethoxypyridin-2-yl)-4-(5-methylthiophen-2-yl)-4H-1,2,4-triazol-3-yl)cyclobutyl)-7-fluoro-1,5-naphthyridine-4-carboxamide] gave an IC50 (TNKS2) of 1.6 nM and an IC50 (WNT/β-catenin signaling; [1]) of 1 nM.
For `CCOc1ccc(-c2nnc([C@H]3C[C@H](NC(=O)c4cccc5cccnc45)C3)n2-c2ccc(C)s2)nc1` [Compound 23, N-(trans-3-(5-(5-Ethoxypyridin-2-yl)-4-(5-methylthiophen-2-yl)-4H-1,2,4-triazol-3-yl)cyclobutyl)quinoline-8-carboxamide], the IC50 (TNKS2) was 2.4 nM and the IC50 (WNT/β-catenin signaling; [1]) was 1 nM.
`CCOc1ccc(-c2nnc([C@H]3C[C@H](NC(=O)c4cccc5ncc(C)nc45)C3)n2-c2ccccc2F)nc1` [Compound 26, N-(trans-3-(5-(5-Ethoxypyridin-2-yl)-4-(2-fluorophenyl)-4H-1,2,4-triazol-3-yl)cyclobutyl)-3-methylquinoxaline-5-carboxamide] showed an IC50 (TNKS2) of 1.5 nM and an IC50 (WNT/β-catenin signaling; [1]) of 2.2 nM.
`CCOc1ccc(-c2nnc([C@H]3C[C@H](NC(=O)c4cccc5nc(C)cnc45)C3)n2-c2ccccc2F)nc1` [Compound 27, N-(trans-3-(5-(5-Ethoxypyridin-2-yl)-4-(2-fluorophenyl)-4H-1,2,4-triazol-3-yl)cyclobutyl)-2-methylquinoxaline-5-carboxamide] gave an IC50 (TNKS2) of 1.1 nM and an IC50 (WNT/β-catenin signaling; [1]) of 2.4 nM.
In the case of `CCOc1ccc(-c2nnc([C@H]3C[C@H](NC(=O)c4cccc5nc(C)c(C)nc45)C3)n2-c2ccccc2F)nc1` [Compound 28, N-(trans-3-(5-(5-Ethoxypyridin-2-yl)-4-(2-fluorophenyl)-4H-1,2,4-triazol-3-yl)cyclobutyl)-2,3-dimethylquinoxaline-5-carboxamide], the IC50 (TNKS2) is reported as 2.6 nM and the IC50 (WNT/β-catenin signaling; [1]) is reported as 4.3 nM.
`O=C(N[C@H]1C[C@H](c2nnc(-c3ccc(OC(F)F)cn3)n2-c2ccccc2F)C1)c1cccc2nccnc12` [Compound 29a, N-(trans-3-(5-(5-(Difluoromethoxy)pyridin-2-yl)-4-(2-fluorophenyl)-4H-1,2,4-triazol-3-yl)cyclobutyl)quinoxaline-5-carboxamide] was tested, and the IC50 (TNKS2) was 1.9 nM and the IC50 (WNT/β-catenin signaling; [1]) was 1.2 nM.
For `O=C(N[C@H]1C[C@H](c2nnc(-c3ccccn3)n2-c2ccccc2F)C1)c1cccc2nccnc12` [Compound 30a, N-(trans-3-(4-(2-Fluorophenyl)-5-(pyridin-2-yl)-4H-1,2,4-triazol-3-yl)cyclobutyl)quinoxaline-5-carboxamide], the IC50 (TNKS2) was 1.6 nM, the IC50 (WNT/β-catenin signaling; [1]) was 0.29 nM and the IC50 (WNT/β-catenin signaling; [2]) was 0.286 nM.
